Target: TBK1 (Homo sapiens (Human), UniProt Q9UHD2)
Experiment: TBK1 low ATP kinase assay (in vitro assay 1)
Type: biochemical
Details: in vitro assay 1, read-out: TBK1 low ATP kinase assay IC50

Chain of TBK1 (Q9UHD2 whole entry): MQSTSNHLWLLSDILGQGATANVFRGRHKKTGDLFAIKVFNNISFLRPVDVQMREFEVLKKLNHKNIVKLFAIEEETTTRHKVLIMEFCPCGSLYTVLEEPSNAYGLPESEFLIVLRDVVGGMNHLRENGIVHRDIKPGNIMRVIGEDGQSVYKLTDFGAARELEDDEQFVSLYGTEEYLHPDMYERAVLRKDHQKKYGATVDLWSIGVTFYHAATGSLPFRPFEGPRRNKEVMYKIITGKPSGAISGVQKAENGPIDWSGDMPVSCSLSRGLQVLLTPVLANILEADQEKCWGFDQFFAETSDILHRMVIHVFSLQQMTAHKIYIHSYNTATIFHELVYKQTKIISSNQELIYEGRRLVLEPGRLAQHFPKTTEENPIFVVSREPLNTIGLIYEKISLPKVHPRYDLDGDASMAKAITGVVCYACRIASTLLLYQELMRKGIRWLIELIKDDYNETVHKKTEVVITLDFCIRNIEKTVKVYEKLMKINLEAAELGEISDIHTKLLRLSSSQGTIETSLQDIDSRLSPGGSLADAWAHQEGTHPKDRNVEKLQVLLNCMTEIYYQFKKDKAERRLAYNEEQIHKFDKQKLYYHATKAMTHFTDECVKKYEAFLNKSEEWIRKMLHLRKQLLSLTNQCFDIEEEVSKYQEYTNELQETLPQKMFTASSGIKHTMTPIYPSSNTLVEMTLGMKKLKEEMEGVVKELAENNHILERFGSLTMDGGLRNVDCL

| IC50 [nM] | Compound |
| --- | --- |
| 43.8 | CC(C)(C)OC(=O)N1CCN(Cc2ccnc(Nc3nc4ccc(-c5cc(C6=CCOCC6)ncn5)cc4[nH]3)c2)CC1 [Example 198.01, tert-butyl 4-{[2-({6-[6-(3,6-dihydro-2H-pyran-4-yl)pyrimidin-4-yl]-1H-benzimidazol-2-yl}amino)pyridin-4-yl]methyl}piperazine-1-carboxylate] |
| 41.9 | O=C(CC(F)(F)F)N1CCN(Cc2ccnc(Nc3nc4ccc(-c5cc(C6CCOCC6)ncn5)cc4[nH]3)c2)CC1 [Example 199.02, 3,3,3-trifluoro-1-(4-{[2-({6-[6-(tetrahydro-2H-pyran-4-yl)pyrimidin-4-yl]-1H-benzimidazol-2-yl}amino)pyridin-4-yl]methyl}piperazin-1-yl)propan-1-one] |

From patent publication US10894784B2, “Heteroarylbenzimidazole compounds” (BAYER PHARMA AKTIENGESELLSCHAFT, priority 2015, dated 2021)
